Patent publication US7608629B2, “(Piperidinyloxy)phenyl, (piperidinyloxy)pyridinyl, (piperidinylsulfanyl)phenyl and (piperidinylsulfanyl)pyridinyl compounds as 5-HT1F agonists” (Eli Lilly and Company, priority 2003, dated 2009)
Structures can show the parent of a compound that is named as a salt.

system: rabbit saphenous vein; assay: Rabbit saphenous vein contraction; conditions: not given
Procedure: Representative compounds of the present invention were tested in a rabbit saphenous vein contraction assay to measure their ability to mediate vasoconstriction. […] The tips of two 30-gauge stainless steel hypodermic needles bent into an L-shape were slipped into the polyethylene tubing. Vessels were gently pushed from the cannula onto the needles. The needles were then separated so that the lower one was attached with thread to a stationary glass rod and the upper one was tied with thread to the transducer. […] An initial optimum resting force of 1 gm was applied to the saphenous vein. Isometric contractions were recorded as changes in grams of force on a Beckman Dynograph with Statham UC-3 transducers and microscale accessory attachments. Tissues were allowed to equilibrate 1 to 2 hours before exposure to drugs. Cumulative agonist concentration-response curves were generated in tissues and no tissue was used to generate more than two agonist concentration-response curves. […] This vasoconstriction assay measures two important parameters, saphenous vein contraction (EC50) and maximal contraction as a % maximal KCl response (% man KCl).

corrected vasoconstriction EC50 (EC50 divided by %max KCl)	Structure (SMILES)
0.0103 µM	CNS(=O)(=O)Cc1ccc2[nH]cc(CCN(C)C)c2c1 [sumatriptan]

same assay, conditions: Oryctolagus cuniculus

EC50	Structure (SMILES)
0.66 µM	CNS(=O)(=O)Cc1ccc2[nH]cc(CCN(C)C)c2c1 [sumatriptan]

system: not given; assay: not given; conditions: not given

melting point	Structure (SMILES)
146 to 148 °C	CN1CCC(Oc2cc(NC(=O)c3ccccc3Br)ccc2Cl)CC1.Cl
269 to 271 °C	CN1CCC(Oc2cccc(NC(=O)c3ccc(F)cc3F)n2)CC1.Cl (hydrate or solvate)
172 to 175 °C	CN1CCC(Oc2cccc(NC(=O)c3ccncc3)c2)CC1.Cl
257 °C (dec.)	CN1CCC(Oc2cc(NC(=O)c3ccc(F)cc3F)ccc2Cl)CC1.Cl
213 °C	CN1CCC(Oc2cccc(NC(=O)c3ccc(F)cc3Cl)c2)CC1.Cl
203 to 205 °C	CN1CCC(Oc2cccc(NC(=O)c3ccc(F)cc3)n2)CC1.Cl (hydrate or solvate)
139.6 °C	CN1CCC(Oc2cccc(NC(=O)c3c(F)cccc3Cl)n2)CC1.Cl
155 to 160 °C	CC1CN(C)CCC1Oc1cccc(NC(=O)c2ccc(F)cc2Cl)n1.Cl (stereo not drawn)
153 to 154 °C	CN1CCC(Oc2cccc(NC(=O)c3c(F)cccc3Cl)c2)CC1.Cl
260 °C	C[C@H]1C[C@H](Oc2cc(NC(=O)c3ccc(F)cc3Cl)ccc2C(C)(C)C)CCN1C.Cl (single isomer, unassigned)
131 to 133 °C	CN1CCC(Oc2cccc(NC(=O)c3ccc(Cl)cc3Cl)c2)CC1.Cl
264 to 266 °C	CN1CCC(Oc2cccc(NC(=O)c3c(F)cc(F)cc3F)n2)CC1.Cl
261.4 °C	CN1CCC(Oc2cccc(NC(=O)c3c(F)cccc3F)n2)CC1.Cl
88 to 90 °C	CN1CCC(Oc2cccc(NC(=O)c3ccccc3Cl)n2)CC1.Cl (hydrate or solvate)
170 to 171 °C	CN1CCC(Oc2cccc(NC(=O)c3c(Cl)cccc3Cl)c2)CC1.Cl
141 to 142 °C	CN1CCC(Oc2cccc(NC(=O)C3CCCCC3)c2)CC1.Cl
251 to 253 °C	Cl.O=C(Nc1cccc(OC2CCNCC2)n1)c1ccc(F)cc1 (hydrate or solvate)
259 to 260 °C	CN1CCC(Oc2cc(NC(=O)c3c(F)cccc3Cl)ccc2Cl)CC1.Cl
261 °C (dec.)	CN1CCC(Oc2cc(NC(=O)c3c(F)cccc3F)ccc2Cl)CC1.Cl
238 °C	C[C@H]1CN(C)CC[C@H]1Oc1cccc(NC(=O)C2=CC=C(F)CC2Cl)n1 (single isomer, unassigned) (as salt: salt)
119 to 121 °C	CN1CCC(Oc2cccc(NC(=O)c3ccccc3OC(F)(F)F)c2)CC1.Cl
145 °C	C[C@H]1C[C@H](Oc2cccc(NC(=O)c3ccc(F)cc3Cl)c2)CCN1C.Cl (single isomer, unassigned)

melting point	Structure (SMILES)
> 270 °C	CN1CCC(Oc2cc(NC(=O)c3c(F)cc(F)cc3F)ccc2Cl)CC1.Cl
136 °C (dec.)	CN1CCC(Oc2cccc(NC(=O)c3c(F)cc(F)cc3F)c2)CC1.Cl
88.7 °C	CN1CCC(Oc2cccc(NC(=O)c3ccccc3OC(F)(F)F)n2)CC1.Cl
171.4 °C (dec.)	CN1CCC(Oc2cccc(NC(=O)c3cc(F)c(F)c(F)c3)n2)CC1.Cl
91 °C	CCN1CCC(Oc2cccc(NC(=O)c3ccc(F)cc3Cl)c2)CC1.Cl
262 °C (dec.)	CCN1CCC(Oc2cccc(NC(=O)c3c(F)cccc3Cl)c2)CC1.Cl
259 °C (dec.)	CN1CCC(Oc2cc(NC(=O)c3ccccc3Cl)ccc2Cl)CC1.Cl
136 to 138 °C	CN1CCC(Oc2cccc(NC(=O)c3c(F)cccc3F)c2)CC1.Cl
104.3 °C	CN1CCC(Oc2cccc(NC(=O)c3ccccc3Br)n2)CC1.Cl
254 to 256 °C	CN1CCC(Oc2cccc(NC(=O)c3ccncc3)n2)CC1.Cl (hydrate or solvate)
104 to 105 °C	CC(C)C(=O)Nc1cccc(OC2CCN(C)CC2)c1.Cl
152 °C	C[C@H]1C[C@@H](Oc2cccc(NC(=O)c3ccc(F)cc3Cl)c2)CCN1C.Cl (single isomer, unassigned)
238 °C	C[C@@H]1CN(C)CC[C@@H]1Oc1cccc(NC(=O)C2=CC=C(F)CC2Cl)n1 (single isomer, unassigned) (as salt: salt)
73 to 74 °C	CN1CCC(Oc2cccc(NC(=O)c3cccnc3)c2)CC1.Cl
269 °C (dec.)	CN1CCC(Oc2cccc(NC(=O)c3ccccc3Br)c2)CC1.Cl
95 to 97 °C	CN1CCC(Oc2cc(NC(=O)c3ccccc3OC(F)(F)F)ccc2Cl)CC1.Cl
182.4 °C (dec.)	CN1CCC(Oc2cccc(NC(=O)c3ccc(F)c(F)c3F)n2)CC1.Cl
135 to 136 °C	CN1CCC(Oc2cccc(NC(=O)c3ccccc3C(F)(F)F)c2)CC1.Cl
150 °C	CN1CCC(Oc2cc(F)cc(NC(=O)c3ccc(F)cc3)c2)CC1.Cl
135 to 137 °C	CN1CCC(Oc2cccc(NC(=O)c3ccc(F)cc3Cl)n2)CC1.Cl (hydrate or solvate)
145 °C	CN1CCC(Oc2cccc(NC(=O)c3ccc(F)cc3)n2)CC1(C)C (stereo not drawn) (as salt: salt)
